Test results as given in the NIST ThermoML archive (doi:10.1016/j.jct.2012.09.032).

Conditions: Liquid, Ebulliometric method (Recirculating still)

CCO [ethanol]
Conditions | vapor or sublimation pressure [kPa]
295.25 K | 6.7
307.45 K | 13.3
315.05 K | 20
321.05 K | 26.7
325.65 K | 33.3
329.55 K | 40
332.85 K | 46.7
335.95 K | 53.3
338.65 K | 60
341.15 K | 66.7

OCC(O)CO [glycerol]
Conditions | vapor or sublimation pressure [kPa]
477.25 K | 6.7
493.35 K | 13.3
505.55 K | 20
513.95 K | 26.7
520.65 K | 33.3

CO [methanol]
Conditions | vapor or sublimation pressure [kPa]
282.55 K | 6.7
293.75 K | 13.3
301.45 K | 20
307.35 K | 26.7
311.85 K | 33.3
315.75 K | 40
319.05 K | 46.7
322.05 K | 53.3
324.65 K | 60
327.25 K | 66.7

O [water]
Conditions | vapor or sublimation pressure [kPa]
311.15 K | 6.7
324.55 K | 13.3
361.85 K | 66.7
